The experiment relates to MV-4-11 cells. As to the kind of experiment: Gene expression microarray analysis (Affymetrix PrimeView) and GSEA. The class given is cell-based, human. Set-up: RFU PODN (11730768_x_at) / Fold change /veh PODN (11730768_x_at) / RFU LINC00158 (11744669_a_at) / Fold change /veh LINC00158 (11744669_a_at) / RFU DUSP10 (11751237_a_at) / Fold change /veh DUSP10 (11751237_a_at) / RFU ID3 (11757404_x_at) / Fold change /veh ID3 (11757404_x_at) / RFU PLEKHG5 (11737974_s_at) / Fold change /veh PLEKHG5 (11737974_s_at) / RFU LRRC4B (11730491_at) / Fold change /veh LRRC4B (11730491_at) / RFU GIMAP4 (11747438_a_at) / Fold change /veh GIMAP4 (11747438_a_at) / RFU KRT8 (11758183_x_at) / Fold change /veh KRT8 (11758183_x_at) / RFU CNN1 (11734310_a_at) / Fold change /veh CNN1 (11734310_a_at) / RFU VPS37D (11726825_at) / Fold change /veh VPS37D (11726825_at) / RFU C10orf10 (11716522_x_at) / Fold change /veh C10orf10 (11716522_x_at) / RFU KIR2DL2 /// KIR2DL4 /// KIR2DL5A /// KIR2DL5B /// KIR2DS1 /// KIR2DS2 /// KIR2DS3 /// KIR2DS4 /// KIR3DL3 /// KIR3DL3 /// KIR3DS1 (11738374_at) / Fold change /veh KIR2DL2 /// KIR2DL4 /// KIR2DL5A /// KIR2DL5B /// KIR2DS1 /// KIR2DS2 /// KIR2DS3 /// KIR2DS4 /// KIR3DL3 /// KIR3DL3 /// KIR3DS1 (11738374_at) / RFU C1QL1 (11718748_at) / Fold change /veh C1QL1 (11718748_at) / RFU TMPRSS4 (11747572_a_at) / Fold change /veh TMPRSS4 (11747572_a_at) / RFU HAMP (11756126_x_at) / Fold change /veh HAMP (11756126_x_at) / RFU RNFT2 (11725882_a_at) / Fold change /veh RNFT2 (11725882_a_at) / RFU NR4A2 (11747474_a_at) / Fold change /veh NR4A2 (11747474_a_at) / RFU ABCC12 (11746883_a_at) / Fold change /veh ABCC12 (11746883_a_at) / RFU TMEM136 (11760407_x_at) / Fold change /veh TMEM136 (11760407_x_at) / RFU CLDN22 /// WWC2 (11732394_at) / Fold change /veh CLDN22 /// WWC2 (11732394_at) / RFU HLA-DPB1 (11760878_x_at) / Fold change /veh HLA-DPB1 (11760878_x_at) / RFU SPINT1 (11716480_a_at) / Fold change /veh SPINT1 (11716480_a_at) / RFU GAP43 (11754022_s_at) / Fold change /veh GAP43 (11754022_s_at) / RFU A4GNT (11735810_at) / Fold change /veh A4GNT (11735810_at) / RFU PRB3 (11715151_x_at) / Fold change /veh PRB3 (11715151_x_at) / RFU TUBB4B (11761932_at) / Fold change /veh TUBB4B (11761932_at) / RFU CAPN14 (11732068_a_at) / Fold change /veh CAPN14 (11732068_a_at) / RFU TMCC2 (11721928_a_at) / Fold change /veh TMCC2 (11721928_a_at) / RFU IRGQ (11745062_a_at) / Fold change /veh IRGQ (11745062_a_at) / RFU FAM174B (11720279_a_at) / Fold change /veh FAM174B (11720279_a_at) / RFU TMPRSS4 (11748680_a_at) / Fold change /veh TMPRSS4 (11748680_a_at) / RFU FAM212B (11763350_a_at) / Fold change /veh FAM212B (11763350_a_at) / RFU PLEKHG5 (11743358_a_at) / Fold change /veh PLEKHG5 (11743358_a_at) / RFU ZSCAN30 (11745921_a_at) / Fold change /veh ZSCAN30 (11745921_a_at) / RFU CMKLR1 (11741424_a_at) / Fold change /veh CMKLR1 (11741424_a_at) / RFU LOC101060620 /// MAPK8IP1 (11723275_at) / Fold change /veh LOC101060620 /// MAPK8IP1 (11723275_at) / RFU SPTSSB (11747773_x_at) / Fold change /veh SPTSSB (11747773_x_at) / RFU PRSS12 (11739890_at) / Fold change /veh PRSS12 (11739890_at) / RFU BIN1 (11741810_x_at) / Fold change /veh BIN1 (11741810_x_at) / RFU WNT11 (11732464_a_at) / Fold change /veh WNT11 (11732464_a_at) / RFU C10orf10 (11716521_a_at) / Fold change /veh C10orf10 (11716521_a_at) / RFU C5orf56 (11738089_at) / Fold change /veh C5orf56 (11738089_at) / RFU CYB561 (11721691_x_at) / Fold change /veh CYB561 (11721691_x_at) / RFU ANKRD19P (11752326_a_at) / Fold change /veh ANKRD19P (11752326_a_at) / RFU OR2T12 /// OR2T33 /// OR2T8 (11738714_s_at) / Fold change /veh OR2T12 /// OR2T33 /// OR2T8 (11738714_s_at) / RFU VCAN (11748164_a_at) / Fold change /veh VCAN (11748164_a_at) / RFU JSRP1 (11732532_at) / Fold change /veh JSRP1 (11732532_at) / RFU KRTAP10-11 (11738290_x_at) / Fold change /veh KRTAP10-11 (11738290_x_at) / RFU MYO3A (11730013_a_at) / Fold change /veh MYO3A (11730013_a_at) / RFU EBF3 (11725865_a_at) / Fold change /veh EBF3 (11725865_a_at) / RFU CAMK2N1 (11719241_x_at) / Fold change /veh CAMK2N1 (11719241_x_at) / RFU C5orf56 (11738088_a_at) / Fold change /veh C5orf56 (11738088_a_at) / RFU OLFML3 (11715873_a_at) / Fold change /veh OLFML3 (11715873_a_at) / RFU LOC100653217 /// NTM (11731650_a_at) / Fold change /veh LOC100653217 /// NTM (11731650_a_at) / RFU MAPK11 (11762145_a_at) / Fold change /veh MAPK11 (11762145_a_at) / RFU FIZ1 (11724087_x_at) / Fold change /veh FIZ1 (11724087_x_at) / RFU OASL (11726364_x_at) / Fold change /veh OASL (11726364_x_at) / RFU SOX15 (11748057_x_at) / Fold change /veh SOX15 (11748057_x_at) / RFU CD79A (11719716_a_at) / Fold change /veh CD79A (11719716_a_at) / RFU HIST1H1D (11736915_at) / Fold change /veh HIST1H1D (11736915_at) / RFU CASKIN2 (11723855_a_at) / Fold change /veh CASKIN2 (11723855_a_at) / RFU LOC730098 (11760151_x_at) / Fold change /veh LOC730098 (11760151_x_at) / RFU OR4N2 (11742367_at) / Fold change /veh OR4N2 (11742367_at) / RFU PRRT2 (11749266_a_at) / Fold change /veh PRRT2 (11749266_a_at) / RFU SNX32 (11753110_a_at) / Fold change /veh SNX32 (11753110_a_at) / RFU CDHR5 (11726645_a_at) / Fold change /veh CDHR5 (11726645_a_at) / RFU RCAN1 (11760418_a_at) / Fold change /veh RCAN1 (11760418_a_at) / RFU FAM167A (11723789_a_at) / Fold change /veh FAM167A (11723789_a_at) / RFU FAM26E (11764081_at) / Fold change /veh FAM26E (11764081_at) / RFU ISYNA1 (11749810_s_at) / Fold change /veh ISYNA1 (11749810_s_at) / RFU ACY1 (11761880_at) / Fold change /veh ACY1 (11761880_at) / RFU 11764098_at / Fold change /veh 11764098_at / RFU SAMD14 (11745864_x_at) / Fold change /veh SAMD14 (11745864_x_at) / RFU NPB (11741838_a_at) / Fold change /veh NPB (11741838_a_at) / RFU TMPRSS6 (11731388_a_at) / Fold change /veh TMPRSS6 (11731388_a_at) / RFU KRTAP10-2 (11738614_at) / Fold change /veh KRTAP10-2 (11738614_at) / RFU ARHGAP8 /// PRR5-ARHGAP8 (11727945_x_at) / Fold change /veh ARHGAP8 /// PRR5-ARHGAP8 (11727945_x_at) / RFU KRTAP5-7 /// NADSYN1 (11734609_at) / Fold change /veh KRTAP5-7 /// NADSYN1 (11734609_at) / RFU RASL12 (11751679_a_at) / Fold change /veh RASL12 (11751679_a_at) / RFU CDKN2B (11736163_a_at) / Fold change /veh CDKN2B (11736163_a_at) / RFU PRF1 (11729649_at) / Fold change /veh PRF1 (11729649_at) / RFU, ZNF638 /// ZNF638-IT1 / Fold change vs veh, ZNF638 /// ZNF638-IT1 / RFU, PANK3 / Fold change vs veh, PANK3 / RFU, SH3YL1 / Fold change vs veh, SH3YL1 / RFU, ZEB2 / Fold change vs veh, ZEB2 / RFU, NRIP1 / Fold change vs veh, NRIP1 / RFU, PTTG1IP / Fold change vs veh, PTTG1IP / RFU, CAPN2 / Fold change vs veh, CAPN2 / RFU, MED14 / Fold change vs veh, MED14 / RFU, SNORA58 / Fold change vs veh, SNORA58 / RFU, C1orf63 / Fold change vs veh, C1orf63 / RFU, LRRFIP1 / Fold change vs veh, LRRFIP1 / RFU, NDUFAF7 / Fold change vs veh, NDUFAF7 / RFU, SLC12A2 / Fold change vs veh, SLC12A2 / RFU, IBTK / Fold change vs veh, IBTK / RFU, ESF1 / Fold change vs veh, ESF1 / Fold change vs veh, TMEM50B / RFU, TAOK1 / Fold change vs veh, TAOK1 / RFU, ACBD3 / Fold change vs veh, ACBD3 / RFU, TMA16 / Fold change vs veh, TMA16 / RFU, RWDD3 / Fold change vs veh, RWDD3 / RFU, BCAT1 / Fold change vs veh, BCAT1 / RFU, EDEM3 / Fold change vs veh, EDEM3 / RFU, TMEM33 / Fold change vs veh, TMEM33 / RFU, WDR75 / Fold change vs veh, WDR75 / RFU, AHCTF1 / Fold change vs veh, AHCTF1 / RFU, TFRC / Fold change vs veh, TFRC / RFU, ZDHHC17 / Fold change vs veh, ZDHHC17 / RFU, NOM1 / Fold change vs veh, NOM1 / RFU, ARL8B / Fold change vs veh, ARL8B / RFU, ZBTB11 / Fold change vs veh, ZBTB11 / RFU, TAMM41 / Fold change vs veh, TAMM41 / RFU, KIAA1704 /// LOC100996395 / Fold change vs veh, KIAA1704 /// LOC100996395 / RFU, ING1 / Fold change vs veh, ING1 / RFU, TRMT61B / Fold change vs veh, TRMT61B / RFU, FUBP3 / Fold change vs veh, FUBP3 / RFU, TP53 / Fold change vs veh, TP53 / RFU, TNKS2 / Fold change vs veh, TNKS2 / RFU, ZFP14 / Fold change vs veh, ZFP14 / RFU, ACTR2 / Fold change vs veh, ACTR2 / RFU, PPP3R1 / Fold change vs veh, PPP3R1 / RFU, PIK3R1 / Fold change vs veh, PIK3R1 / RFU, HNRNPA1 / Fold change vs veh, HNRNPA1 / RFU, RNF170 / Fold change vs veh, RNF170 / RFU, ZNF28 / Fold change vs veh, ZNF28 / RFU, RNGTT / Fold change vs veh, RNGTT / RFU, OGT / Fold change vs veh, OGT / RFU, BRD1 / Fold change vs veh, BRD1 / RFU, MARS / Fold change vs veh, MARS / RFU, ZNF655 / Fold change vs veh, ZNF655 / RFU, FAHD1 / Fold change vs veh, FAHD1 / RFU, BDP1 / Fold change vs veh, BDP1 / RFU, LRRCC1 / Fold change vs veh, LRRCC1 / RFU, ARID1A / Fold change vs veh, ARID1A / RFU, ZNF146 / Fold change vs veh, ZNF146 / RFU, ZNF330 / Fold change vs veh, ZNF330 / RFU, GPN3 / Fold change vs veh, GPN3 / RFU, C9orf123 / Fold change vs veh, C9orf123 / RFU, N4BP2L2 / Fold change vs veh, N4BP2L2 / RFU, ARFIP1 / Fold change vs veh, ARFIP1 / RFU, FAM179B / Fold change vs veh, FAM179B / RFU, BCL10 / Fold change vs veh, BCL10 / RFU, UHRF1BP1L / Fold change vs veh, UHRF1BP1L / RFU, BET1 / Fold change vs veh, BET1 / RFU, CNOT2 / Fold change vs veh, CNOT2 / RFU, ZNF268 / Fold change vs veh, ZNF268 / Fold change vs veh, ZNF507 / RFU, DGCR2 / Fold change vs veh, DGCR2 / RFU, WDSUB1 / Fold change vs veh, WDSUB1 / Fold change vs veh, HSP90B1 /// MIR3652 / RFU, ADSS / Fold change vs veh, ADSS / RFU, GK / Fold change vs veh, GK / RFU, ZNF148 / Fold change vs veh, ZNF148 / RFU, TAF9 / Fold change vs veh, TAF9 / RFU, SLC1A5 / Fold change vs veh, SLC1A5 / RFU, SLMO2 / Fold change vs veh, SLMO2 / RFU, ABCC4 / Fold change vs veh, ABCC4 / RFU, LOC101060439 /// RAP1B / Fold change vs veh, LOC101060439 /// RAP1B / RFU, RFX7 / Fold change vs veh, RFX7 / RFU, GTPBP10 / Fold change vs veh, GTPBP10 / RFU, CNEP1R1 / Fold change vs veh, CNEP1R1 / RFU, BIVM-ERCC5 /// ERCC5 / Fold change vs veh, BIVM-ERCC5 /// ERCC5 / RFU, ILF3 / Fold change vs veh, ILF3 / RFU 11762660_at / Fold change /veh 11762660_at / RFU VCAN (11757783_s_at) / Fold change /veh VCAN (11757783_s_at) / RFU DDX43 (11728927_at) / Fold change /veh DDX43 (11728927_at) / RFU KRT8 (11758188_x_at) / Fold change /veh KRT8 (11758188_x_at) / RFU NKD1 (11759106_at) / Fold change /veh NKD1 (11759106_at) / RFU SRD5A1 (11742802_a_at) / Fold change /veh SRD5A1 (11742802_a_at) / RFU TPSAB1 /// TPSB2 (11721975_s_at) / Fold change /veh TPSAB1 /// TPSB2 (11721975_s_at) / RFU GSTM3 (11746129_a_at) / Fold change /veh GSTM3 (11746129_a_at) / RFU IL23R (11737362_x_at) / Fold change /veh IL23R (11737362_x_at) / RFU TMEM51 (11727254_a_at) / Fold change /veh TMEM51 (11727254_a_at) / RFU PIWIL2 (11732686_x_at) / Fold change /veh PIWIL2 (11732686_x_at) / RFU ORM1 (11744905_x_at) / Fold change /veh ORM1 (11744905_x_at) / RFU CCDC152 (11743942_at) / Fold change /veh CCDC152 (11743942_at) / RFU ECM1 (11717891_a_at) / Fold change /veh ECM1 (11717891_a_at) / RFU IL23R (11748794_a_at) / Fold change /veh IL23R (11748794_a_at) / RFU TNFAIP8L3 (11732012_x_at) / Fold change /veh TNFAIP8L3 (11732012_x_at) / RFU MBOAT4 (11741988_at) / Fold change /veh MBOAT4 (11741988_at) / RFU 11764193_at / Fold change /veh 11764193_at / RFU TMEM53 (11763286_at) / Fold change /veh TMEM53 (11763286_at) / RFU MAGEB2 (11727129_at) / Fold change /veh MAGEB2 (11727129_at) / RFU TMEM200A (11744735_a_at) / Fold change /veh TMEM200A (11744735_a_at) / RFU CCDC152 (11751479_a_at) / Fold change /veh CCDC152 (11751479_a_at) / RFU FAM211A (11726209_a_at) / Fold change /veh FAM211A (11726209_a_at) / RFU RGS16 (11746705_a_at) / Fold change /veh RGS16 (11746705_a_at) / RFU VCAN (11755009_s_at) / Fold change /veh VCAN (11755009_s_at) / RFU RHOB (11743442_s_at) / Fold change /veh RHOB (11743442_s_at) / RFU RGS16 (11720943_a_at) / Fold change /veh RGS16 (11720943_a_at) / RFU RGS16 (11720944_at) / Fold change /veh RGS16 (11720944_at) / RFU, VPS4B / Fold change vs veh, VPS4B / RFU, CREB1 / Fold change vs veh, CREB1 / RFU, DNAJC13 / Fold change vs veh, DNAJC13 / RFU, GNAQ / Fold change vs veh, GNAQ / RFU, CDK5R1 / Fold change vs veh, CDK5R1 / RFU, ZRANB3 / Fold change vs veh, ZRANB3 / RFU, CUL4A / Fold change vs veh, CUL4A / RFU, CCNY / Fold change vs veh, CCNY / RFU, UFL1 / Fold change vs veh, UFL1 / RFU, COG3 / Fold change vs veh, COG3 / RFU, DIAPH2 / Fold change vs veh, DIAPH2 / RFU, SKA2 / Fold change vs veh, SKA2 / RFU, AFF3 / Fold change vs veh, AFF3 / RFU, LMF1 / Fold change vs veh, LMF1 / RFU, IPO11 / Fold change vs veh, IPO11 / RFU, DFFB / Fold change vs veh, DFFB / RFU, FOXP1 / Fold change vs veh, FOXP1 / RFU, CARD8 / Fold change vs veh, CARD8 / RFU, STRN3 / Fold change vs veh, STRN3 / RFU, ADK / Fold change vs veh, ADK / RFU, RASSF2 / Fold change vs veh, RASSF2 / RFU, WIPF1 / Fold change vs veh, WIPF1 / RFU, LARP1B / Fold change vs veh, LARP1B / RFU, RASA1 / Fold change vs veh, RASA1 / RFU, RB1 / Fold change vs veh, RB1 / RFU, PPFIA1 / Fold change vs veh, PPFIA1 / RFU, MAT2A / Fold change vs veh, MAT2A / RFU, CCT5 / Fold change vs veh, CCT5 / RFU, WDR92 / Fold change vs veh, WDR92 / RFU, CUX1 / Fold change vs veh, CUX1 / RFU, TTC7A / Fold change vs veh, TTC7A / RFU, TMEM135 / Fold change vs veh, TMEM135 / RFU, DEPTOR / Fold change vs veh, DEPTOR / RFU, CPM / Fold change vs veh, CPM / RFU, DNAJB6 / Fold change vs veh, DNAJB6 / RFU, CACNA2D3 / Fold change vs veh, CACNA2D3 / RFU, DTX4 / Fold change vs veh, DTX4 / RFU, TFCP2 / Fold change vs veh, TFCP2 / RFU, GMCL1 /// GMCL1P1 / Fold change vs veh, GMCL1 /// GMCL1P1 / RFU, AEBP2 / Fold change vs veh, AEBP2 / RFU, SNHG1 /// SNORD22 /// SNORD25 /// SNORD26 /// SNORD27 /// SNORD28 /// SNORD29 /// SNORD31 / Fold change vs veh, SNHG1 /// SNORD22 /// SNORD25 /// SNORD26 /// SNORD27 /// SNORD28 /// SNORD29 /// SNORD31 / Fold change (Aza/veh), C12orf56 (ProbeSet 11735607_a_at) / Fold change (ACY-1035/veh), C12orf56 (ProbeSet 11735607_a_at) / Fold change (Aza/veh), FGFR1OP (ProbeSet 11751329_s_at) / Fold change (ACY-1035/veh), FGFR1OP (ProbeSet 11751329_s_at) / Fold change (Aza/veh), VPS36 (ProbeSet 11739960_a_at) / Fold change (ACY-1035/veh), VPS36 (ProbeSet 11739960_a_at) / RFU SYPL1 (11715823_x_at) / Fold change /veh SYPL1 (11715823_x_at) / RFU IGFBP7 (11715501_s_at) / Fold change /veh IGFBP7 (11715501_s_at) / RFU REEP3 (11722064_at) / Fold change /veh REEP3 (11722064_at) / RFU IGLL1 (11728026_x_at) / Fold change /veh IGLL1 (11728026_x_at): dose or concentration left out as unconfirmed. The conditions noted are these: MV-4-11 cells, 48 hours.

The values below come from PMC5218480 (PLoS ONE, 2017).

For `Nc1ncn([C@@H]2O[C@H](CO)[C@@H](O)[C@H]2O)c(=O)n1` [azacitidine], the “Fold change /veh C10orf10 (11716521_a_at)” value is given as 1.13.
